Measured values from patent publication US6087375A, “Methods of treating or preventing thromboses” (priority 1999, dated 2000).

Tests used:
[1] = target: T1, thrombin from human plasma (Homo sapiens, UniProt P00734); assay: Km-based chromogenic thrombin inhibition assay (S-2238); type: biochemical; set-up: from tissue; host or cells: human plasma; conditions: 8 μM S-2238, 10 mU thrombin, pH 7.2, 35° C., 405 nm
Excerpt: Specifically, a Km-based chromogenic assay was first employed. […] Measurements at 405 nm are designed to detect the thrombin-induced liberation of p-nitroaniline from the S-2238 substrate. As such, an observed increase in absorbance at 405 nm directly correlates with an increase in hydrolysis of the substrate by thrombin.

[2] = target: T1, thrombin from human plasma; assay: Vmax-based thrombin inhibition assay (200 μM S-2238); type: biochemical; set-up: from tissue; host or cells: human plasma; conditions: 200 μM S-2238, 40 mU thrombin, pH 7.2, 25° C.
[3] = target: T1, thrombin from human plasma; assay: Km-based 96-well formatted fluorogenic thrombin inhibition assay
[4] = test system: anti-KLH-argatroban antibody; assay: Sandwich ELISA using polyclonal anti-KLH-argatroban antibodies; type: binding, rabbit; conditions: rabbit erythrocytes treated with argatroban-C6 free acid
Method: The reaction was quenched by adding hydroxylamine, pH 7.8 to a final concentration of 50 mM and incubating at room temperature for 10 minutes.
Rabbit anti-HSA monoclonal antibody (Boehringer/Mannheim, catalog no. 605001) diluted 1:5000 in PBS, pH 7.4 or mouse anti-hGPA monoclonal antibody (BioAtlan-tic/CRTS, mAb 5F4, diluted to 10 μg/ml in 0.1 M sodium acetate, pH 4.5 or mAb 3C10 diluted 1:500 or mAb 3E4 diluted 1:1000 in PBS, pH 7.4 - each antibody recognizes a different epitope of hGPA), were used to capture respective proteins by aliquotting 100 μl/well into a NUNC Maxisorp F96 plate (catalog no. 439454). The plates were incubated overnight at 4° C., were then blocked by the addition of 200 μl/well of 1% BSA/PBS and incubated at room temperature for 1 hour. The plates were then washed 5 times by submersion in PBS, pH 7.4.
Samples were incubated on the plates for 2 hours at room temperature and then were washed as above.
The plates were then incubated at room temperature for 30 minutes and washed as above.
Biotinylated goat anti-rabbit IgG (Vector, catalog no. BA1000) was diluted 1:1000 in 1% BSA/PBS, pH 7.4 and 100 μl/well added to all wells. The plates were incubated at room temperature for 30 minutes and washed as above.
Next, 100 μl/well of ABC-HRP (Vector, catalog no. PK4000) was added, each component diluted 1:500 in PBS, pH 7.4, with 0.1% TWEEN 20 and incubated 30 minutes at room temperature prior to use. The plates were then washed 10 times by submersion in PBS, pH 7.4.

[5] = target: T1, thrombin from human plasma; assay: Km-based fluorogenic assay for inhibition of thrombin (Example 7); type: biochemical; set-up: from tissue; host or cells: human plasma; conditions: FIGS. 9 and 10
Method: Thrombin from human plasma was obtained from Enzyme System Products, Dublin, Calif., in glycerol:water 1:1, 11.4 mg/ml, 3800 U/mg, MW 36,700, and stored undiluted at -20° C. It was freshly diluted the day of use.
To dilute for the assay, 0.67 μl (25 Units) of thrombin was pipetted into 5 ml of 0.1 mg/ml BSA (from Pierce, Catalog No. 23209, BSA fraction V, a 2 mg/ml stock in saline with sodium azide), in cold PBS (GIBCO, Catalog No. 14190-136, without calcium chloride and magnesium chloride, pH 7.2) and briefly vortexed, yielding a stock of 5 mU thrombin/μl.
The substrate was N-tBOC-β-Benzyl-Asp-Pro-Arg-7-Amido4-Methylcoumarin HCl and was obtained from Sigma, Catalog No. B4028, Lot 122H0070, F.W. 770.3. Five mg was dissolved in […] DMSO for a 4 mM stock. The stock was stored in 200 μl aliquots at -20° C. in the dark.
An alternative substrate was N-tBOC-Val-Pro-Arg-7-Amido4-Methylcoumarin HCl and was obtained from Sigma, Catalog No. B-9385, Lot 53H0805, F.W. of free base 627.7. Five mg was dissolved in 1.863 ml DMSO for a 4 mM stock. The stock was stored in 200 μl aliquots at -20° C. in the dark.
The fluorescent standard was 7-Amido4-Methylcoumarin and was obtained from Aldrich, Catalog No. 25,737-0, MW 175.19. […]
Initial readings were taken to ensure exclusion of rogue wells with abnormally high backgrounds (λ excitation at 360 nm, bandwidth […], λ emission, 460 nm, bandwidth 40 nm). Then, 25 μl of a 10×stock of the putative inhibitor were added per well, mixed for 5 seconds and read kinetically for 10 minutes at ambient temperature to assess background interference and/or any increase in hydrolysis of substrate due to inhibitor.
The thrombin assay was then initiated by adding 25 μl of thrombin/well with a multichannel pipettor and mixed for 5 seconds. The appearence of the fluorescent product (free 7-amido-4-methylcoumarin released from the peptide by thrombin) was followed simultaneously in 48 wells (one reading per minute for 30 minutes, λ excitation at 360 nm, bandwidth 40 nm, λ emission, 460 nm, bandwidth 40 nm). […]

Row | SMILES | IC50 [1] [nM] | IC50 [2] [nM] | IC50 [3] [nM] | plate ELISA signal [4] | thrombin inhibition [5]
1 | CC1CNc2c(cccc2S(=O)(=O)NC(CCCNC(=N)N)C(=O)N2CCC(C)CC2C(=O)NCCCCCCCCCCCC(=O)O)C1 (stereo not drawn) [compound YL-015-10] | 150 | 5000 to 8000 | ~80 |  | 
2 | CC1CNc2c(cccc2S(=O)(=O)NC(CCCN=C(N)N)C(=O)N2CCC(C)CC2C(=O)NCCCCCC(=O)O)C1 (stereo not drawn) [compound YL-015-15] |  |  | ~50 | did not give a signal above background | not inhibitory
